According to US20240335402A1, “BIODEGRADABLE ANTI-INFECTIVE FORMULATIONS” (New Mexico Tech University Research Park Corporation, priority 2023, published 2024):

Tested on: colistin (polymyxin E, or PME) resistant bacterium S. maltophilia
Experiment: Spot test on lawn of colistin resistant bacterium
Type: cell-based
Conditions: 10 μL spotted, 37° C., 2 days

## O=C(O)CC[C@@H](C(=O)O)N(CC(=O)O)CC(=O)O [GLDA, N,N-Dicarboxymethyl glutamic acid]
  activity / kill of S. maltophilia lawn: did not work as well as CTAC
